The assay deals with T1, PD-1/PD-L1 (Homo sapiens, UniProt Q9NZQ7).
T1 construct: purchased Cisbio 63ADK000CPDEC
T1 sequence (Q9NZQ7 19-238 limits assumed): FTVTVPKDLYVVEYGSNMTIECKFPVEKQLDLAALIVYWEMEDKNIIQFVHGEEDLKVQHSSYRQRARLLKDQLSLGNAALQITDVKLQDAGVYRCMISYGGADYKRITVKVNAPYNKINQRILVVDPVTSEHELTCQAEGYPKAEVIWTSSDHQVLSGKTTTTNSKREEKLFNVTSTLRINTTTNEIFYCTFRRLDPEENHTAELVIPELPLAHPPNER
The assay is described as follows: PD-1/PD-L1 homogeneous time-resolved fluorescence (HTRF) binding assay. The following applies: Tag 1-PD-L1 / Tag 2-PD-1, Cisbio kit. The source says: The PD-1/PD-L1 homogeneous time-resolved fluorescence method is used to detect the binding ability of the compound with PD-L1.
PD-1/PD-L1 binding assay kit (Cisbio, Cat #63ADK000CPDEC) was chosen, which contains two proteins Tag 1-PD-L1 and Tag 2-PD-1, and two antibodies Anti-Tag1-Eu^3+ and Anti-Tag2-XL 665. The principle of detection was: Anti-tag1-Eu^3+ was used as the donor of HTRF, and Anti-Tag2-XL 665 was used as the acceptor of HTRF. When Tag 1-PD-L1 interacts with Tag 2-PD-1, the added HTRF donor and the acceptor are close to each other. After the donor has received the excitation energy, part of the energy was transferred to the acceptor, thus generating 665 nm emission light. […] The inhibitory effect of the compound can be determined by comparing the ratio of 665 nm/620 nm. Tag 1-PD-L1 was diluted with Diluent buffer (cat #62DLBDDF) to a working concentration of 10 nM, Tag 2-PD-1 was diluted with Diluent buffer to a working concentration of 500 nM, Anti-Tag1-Eu^3+ was diluted with detection buffer (cat #62DB1FDG) at a ratio of 1:100, Anti-Tag2-XL 665 was diluted with detection buffer at a ratio of 1:20, and the compound to be detected was diluted with diluent buffer to a final concentration of 2×. Compound (2 μL) was added to each well of a 384-well plate, then Tag 1-PD-L1 (4 μL) and Tag 2-PD-1 (4 μL) were added successively. The mixture was incubated at room temperature for 15 minutes. Then Anti-Tag1-Eu^3+ (5 μL) and Anti-Tag2-XL 665 (5 μL) were added, and the mixture was incubated overnight at room temperature. BioTek Synergy™ Neo2 multifunctional microplate reader was used to detect so as to provide the 665 nm/620 nm ratio. PrismGraphd 5.02 was used to fit the IC50 curve.
In the case of `OCCNCc1cnc2nn(-c3cccc(-c4ccccc4)c3Cl)cc2c1` [Compound 1, 2-(((2-(2-Chloro-[1,1′-biphenyl]-3-yl)-2H-pyrazolo[3,4-b]pyridin-5-yl)methyl)amino) ethane-1-ol], the IC50 (commonly the concentration at which inhibition is half-maximal) lay within 100 to 1000 nM. In the case of `COc1nc(CNCCO)nc2c1CN(c1cccc(-c3ccccc3)c1Cl)C2` [Compound 5, 2-(((6-(2-Chloro-[1,1′-biphenyl]-3-yl)-4-methoxy-6,7-dihydro-5H-pyrrolo[3,4-d)pyrimidin-2-yl)methyl)amino)ethane-1-ol] it was less than 100 nM. Take `COc1nc(CN2CCCC[C@H]2C(=O)O)nc2c1CN(c1cccc(-c3ccccc3)c1Cl)C2` [Compound 6, (S)-1-((6-(2-Chloro-[1,1′-biphenyl]-3-yl)-4-methoxy-6,7-dihydro-5H-pyrrolo[3,4-d)pyrimidin-2-yl)methyl)piperidine-2-carboxylic acid]: the IC50 was less than 100 nM. With `Cc1c(-c2ccccc2)cccc1-n1cc2cc(CNCCO)cc(C#N)c2n1` [Compound 9, (((2-Hydroxyethyl)amino)methyl)-2-(2-methyl-[1,1′-biphenyl]-3-yl)-2H-indazole-7-carbonitrile], the IC50 was in the range of 100 to 1000 nM. The figure for `COc1cc(CNCCO)cc2c1CN(c1cccc(-c3ccccc3)c1Cl)C2` [Compound 10, 2-(((2-(2-Chloro-[1,1′-biphenyl]-3-yl)-7-methoxyisoindolin-5-yl)methyl)amino)ethane-1-ol] is less than 100 nM.

For the origin of these results see patent US20220056023A1, “PREPARATION AND APPLICATION OF CLASS OF N-CONTAINING HETEROCYCLIC COMPOUNDS HAVING IMMUNOREGULATORY FUNCTION” (SHANGHAI ENNOVABIO PHARMACEUTICALS CO., LTD., priority 2018, published 2022).
